These results are taken from PubChem BioAssay (NCI).

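Results reflect a 48-hour exposure of cells in 96-well plates to compound at five concentrations. Abbreviation: GI50, concentration required for 50% inhibition of growth. TGI: total growth inhibition.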

Assay in all cases: NCI anticancer screen, dose series, 48 h
The test system of test [1] is TK-10 renal.
Test [2] concerns RPMI-8226 leukemia.
Test [3] has as its system UACC-62 melanoma.
Test [4] deals with HS 578T breast.
For test [5], the system named is PC-3 prostate.
For test [6], the system named is SW-620 colon.
In test [7] the test system is MALME-3M melanoma.
The subject of test [8] is SNB-75 CNS.
In test [9] the test system is M14 melanoma.
Test [10] deals with A498 renal.

Turning to `C/C(=N\NC(=S)N1CC2CCC(CC2)C1)c1nccs1`, the TGI is 15.9 µM in test [1]; 20.8 µM in test [2]; 0.893 µM in [3]; 38.6 µM in test [4]; 16.6 µM in test [5]; 18.9 µM in [6]. In addition, the TGI in [7] turned out to be 13.9 µM; in test [8], 16.2 µM; in [9], 1.6 µM; in test [10], 14.3 µM.
As for `C[C@@]1(C(=O)O)CCC[C@]2(C)C1CC[C@@]13CC(=O)[C@@](CO)(CC[C@]12O)C3` (stereo partly drawn), the GI50 in [1], in test [2], in test [3], in test [4], in [5] and in test [6] was above 100 µM in each case. Also, the GI50 was 24.1 µM in test [7], above 100 µM in [8], above 100 µM in test [9] and 19.7 µM in test [10]. Besides, the TGI in [1], in test [2], in test [3], in test [4], in test [5] and in test [6] was above 100 µM throughout. The TGI in test [7], in test [8], in test [9] and in [10] was above 100 µM in each case.
For `COc1cccc(N2CCN(CC(=O)N3CCN(c4nnc(-c5ccc(Cl)cc5)c(-c5ccc(Cl)cc5)n4)CC3)CC2)c1`, the GI50 in [1] was 17.3 µM; in [2] it was 4.63 µM; in test [3], 31.3 µM; in test [4], 22 µM; in test [5], 16.6 µM; in [6], 64.9 µM. The GI50 in test [7] was 20.6 µM; in [8], 19 µM; in test [9], 30.2 µM; in test [10], 19.6 µM. In addition, the TGI in test [1] is 85.9 µM; in [2], above 100 µM; in [3], above 100 µM; in [4], 85.7 µM; in [5], above 100 µM; in test [6] it was above 100 µM. In addition, the TGI in test [7] is above 100 µM; in [8], 52.9 µM; in test [9], above 100 µM; in test [10] it was 52.1 µM.
Regarding `CSC(=Nc1nnc(-c2ccc([N+](=O)[O-])cc2)s1)SC`, the TGI in [1] was 44.8 µM; in test [2], above 100 µM; in test [3] it was above 76.5 µM; in [4], above 81.8 µM; in test [5] it was above 100 µM; in [6] it was above 100 µM. The TGI in test [7] was above 100 µM; in test [8] it was 33.6 µM; in [9], above 100 µM; in test [10], 64.6 µM.
For `CCOC(=O)Nc1ccc2c(c1)/C(=N\NC(N)=S)c1ccccc1-2`, the GI50 is 15.2 µM in test [1]; 2.49 µM in [2]; 2.03 µM in test [3]; 5.43 µM in [4]; 4.44 µM in [5]; 5.91 µM in test [6]. Further, the GI50 in [7] was 9.23 µM; in [8], 4.19 µM; in [9] it was 4.69 µM; in [10], 2.39 µM. Further, the TGI in test [1] is above 68.5 µM; in [2], 12.9 µM; in test [3], 4.77 µM; in test [4] it was 36.7 µM; in test [5] it was 24.8 µM; in [6], 32.6 µM. Besides, the TGI in test [7] amounted to 33.4 µM; in test [8] it was 18.2 µM; in test [9] it was 23.1 µM; in test [10], 8.18 µM.
Consider `CCN1C(=O)N(CC)C2C1NN=c1s/c(=C\c3cccc(F)c3)c(=O)n12` (stereo not drawn), for which the GI50 in test [1] was 27.2 µM; in test [2] it was 0.119 µM; in [3], 0.0539 µM; in test [4] it was 0.0899 µM; in [5] it was 0.185 µM; in test [6], 0.0845 µM. In addition, the GI50 is 0.429 µM in [7], 0.0745 µM in [8], 0.0727 µM in [9] and below 0.0184 µM in [10]. For the same molecule, the TGI in test [1] was above 100 µM; in test [2] it was 7.78 µM; in test [3] it was above 100 µM; in test [4], above 100 µM; in [5], above 100 µM; in test [6], above 100 µM. Besides, the TGI in [7] was above 100 µM; in [8], above 100 µM; in [9], above 100 µM; in test [10], 0.184 µM.
In the case of `Clc1nc(Cl)c2ncn(CC3(Cn4cnc5c(Cl)nc(Cl)nc54)COC3)c2n1`, the GI50 was 0.601 µM in [1]; 1.86 µM in [2]; 0.283 µM in [3]; 0.316 µM in test [4]; 0.188 µM in [5]; 0.257 µM in [6]. In addition, the GI50 was 0.187 µM in test [7], 0.201 µM in [8], 0.274 µM in [9] and 1.78 µM in [10]. In addition, the TGI in test [1] is 1.2 µM; in [2], 59.1 µM; in [3] it was 0.903 µM; in [4], 0.868 µM; in test [5], 0.348 µM; in test [6], 0.651 µM. The TGI in test [7] stood at 0.433 µM; in test [8], 0.395 µM; in test [9], 0.753 µM; in test [10] it was 3.46 µM.
`N#Cc1ccc(OCc2nc(N)nc(N)c2-c2ccc(Cl)c(Cl)c2)cc1`: the GI50 was 5.42 µM in [2]; 0.467 µM in test [3]; 2.65 µM in test [4]; 0.613 µM in test [5]; 0.484 µM in [6]; 23.5 µM in test [7]. The GI50 was 2.74 µM in test [8], 0.741 µM in [9] and 1.43 µM in [10]. For the same molecule, the TGI in test [2] was above 100 µM; in [3] it was 87.7 µM; in test [4], 41.3 µM; in [5], above 100 µM; in test [6], above 100 µM; in [7] it was 84.8 µM. Also, the TGI was 29.1 µM in test [8], above 100 µM in [9] and 10.8 µM in test [10].
